In patent US12685744B2, “Anti-fungal compositions and methods for using same” (The Research Foundation for The State University of New York, priority 2019, dated 2026):

Assays:
[1] = tested on: C. albicans strain SC5314 (Wild Type); experiment: Growth of C. albicans with ManSIFG and 0.2M CaCl2, cell count by hemocytometer; assay type: cell-based, Candida albicans; conditions: 0.2M CaCl2 alone
Experimental: This signaling pathway is considered to regulate synthesis of chitin, an important carbohydrate which is part of the cell wall and septum, which is formed during cell division. C. albicans strain SC5314 (wild type) was cultured from frozen stock in Yeast Nitrogen Base media (YNB) with 2% glucose and grown overnight at 30° C. with shaking at 225 rpm. Cell concentration was determined by hemocytometer. […] […] (62.5 μg/ml) was added to test cultures but not to control cultures. The experiment was done in triplicates. The culture tubes were placed on a nutator inside a 30° C. incubator and grown for 24 hours. Time points were taken at 6, 12, and 24 hours. Cell concentration was monitored by hemocytometer at 6, 12, and 24-hour time points. Statistical analysis was done using two-tailed Student's t-Test.

[2] = tested on: C. albicans wild type strain (SC5314); experiment: Checkerboard synergy assay / MIC analysis, OD600; assay type: cell-based, Candida albicans
Experimental: (§1) The C. albicans wild type strain (SC5314) was cultured from frozen stock in Yeast Peptone Dextrose (YPD) and grown overnight at 30° C. with shaking at 225 rpm. Cell concentration was determined by hemocytometer and used to adjust the inoculum to 2×10^3 cells/ml in fresh YPD, which is 2× the desired final concentration. 50 ul of the inoculum was added to each well for a final culture volume of 100 ul. The final cell concentration was 1×10^3 cells/ml. The plate was sealed with plastic film and placed in a BioTek Synergy HT plate reader for 24 hours at 37° C. At each time point, the plate was shaken for 10 seconds prior to each OD600 reading.

[3] = tested on: wildtype C. albicans strain SC5314; experiment: Growth of C. albicans in YNB, cell count by hemocytometer; assay type: cell-based, Candida albicans
Experimental: (§2) The wildtype C. albicans strain SC5314 was cultured from frozen stock in Yeast Nitrogen Base (YNB) media with 2% glucose and grown overnight at 30° C. with shaking at 225 rpm as described previously (Chinnici et al., 2019). Cell concentration of the overnight culture was determined by hemocytometer. This was used to inoculate fresh cultures with a final starting concentration of 5×10^5 cells/ml in fresh YNB contain either no treatment (control) or various concentrations (31.25, 62.5, or 125 μg/ml) of the mannose disaccharide inhibitor. The cultures were run in duplicates and incubated at 30° C. on a nutator. Cell concentration was analyzed by counting on hemocytometer at 10, 14, 18, and 24-hour time points. Statistical analysis was done using two-tailed Student's t-Test.
as §2, with “previously.” for “previously (Chinnici et al., 2019).”, “62.5 μg/ml” for “various concentrations (31.25, 62.5, or 125 μg/ml)”, “D-Mannose.” for “the mannose disaccharide inhibitor.”

[4] = tested on: Trychophyton rubrum (ATCC-MYA-4607); experiment: MIC testing against toe nail fungus; assay type: cell-based, Trichophyton rubrum; conditions: various concentrations, SDB, 25° C., 6 days (FIG. 10)
Experimental: Effect […] on other fungal cells. Trichophyton rubrum is the fungal pathogen that causes onychomycosis or toe nail fungus. […] The experiment was performed in triplicates. […] A 50 ul inoculum was added to each well for a final culture volume of 100 ul. […] The plate was cultured for 6 days at 25° C. and then imaged using an iPhone camera.

[5] = tested on: Candida glabrata (ATCC-2001) wild type strain; experiment: Antifungal activity against C. glabrata; assay type: cell-based; conditions: FIG. 14
[6] = tested on: C. albicans strain SC5314 (Wild Type); experiment: Germ tube / hypha formation of C. albicans induced by 20% FBS, count by hemocytometer; assay type: cell-based, Candida albicans; conditions: 62.5 μg/ml, 37° C., significantly (FIG. 3)
[7] = tested on: Candida parapsilosis (ATCC-22019) wild type strain; experiment: Antifungal activity against C. parapsilosis; assay type: cell-based; conditions: at very low concentrations (FIG. 12)
Experimental: as §1, with “ManSIFG MIC analysis for Candida albicans and effects of CaCl2. A checkerboard synergy assay was used to test ManSIFG and CaCl2) each by themselves and in various combinations of each other. Drug concentrations to be tested were prepared 4× concentrated and dispensed into a sterile 96-well culture plate. 25 ul of each ManSIFG dilution was dispensed in each column, such that concentrations increased along the x-axis of the plate. 25 ul of each CaCl2 dilution was dispensed in each row, such that concentrations increased along the y-axis of the plate. The C.” for “The C.”
Effect of ManSIFG on additional Candida species. Other Candida species were tested. Candida parapsilosis (ATCC-22019) wild type strain was used. Methods are same as described above. […]

[8] = tested on: Candida tropicalis (ATCC-750) wild type strain; experiment: Antifungal activity against C. tropicalis; assay type: cell-based; conditions: FIG. 15
[9] = tested on: Candida krusei, (ATCC-6258) wild type strain; experiment: Antifungal activity against C. krusei; assay type: cell-based; conditions: even at very low concentrations (FIG. 13)

[Ca+2].[Cl-].[Cl-] [CaCl2, Calcium chloride]
growth of C. albicans as compared to control cultures ([1]; 12 hours (FIG. 4A)): significantly inhibit
growth of C. albicans as compared to control cultures ([1]; 24 hours (FIG. 4B)): significantly inhibit
antifungal effect of CaCl2 by itself ([2]; very high concentrations (FIG. 9)): has an antifungal effect

O=C[C@@H](O)[C@@H](O)[C@H](O)[C@H](O)CO [D-Mannose, reference compound]
growth of C. albicans wild type as compared to control cultures ([3]; D-Mannose 62.5 μg/ml, 10, 14, 18 and 24-hour time points): not inhibited

OC[C@H]1O[C@H](SC[C@H]2CNC[C@@H](O)[C@@H]2O)[C@@H](O)[C@@H](O)[C@@H]1O [ManSIFG, (2R,3S,4S,5S,6R)-2-((((3S,4R,5R)-4,5-dihydroxypiperidin-3-yl)methyl)thio)-6-(hydroxymethyl)tetrahydro-2H-pyran-3,4,5-triol]
inhibitory effect against Trychophoton rubrum [4]: no inhibitory effect
antifungal activity against Candida glabrata [5]: has antifungal activity
formation of germ tubes as compared to control cultures ([6]; 12 hours): inhibited
formation of germ tubes as compared to control cultures ([6]; 24 hours): inhibited
MIC ([2]; Candida albicans, SC5314, YPD, 37° C., 24 hours, OD600 (FIG. 7)): 31.2 to 62.5 µg/mL
effect of addition of CaCl2 on antifungal activity of ManSIFG ([2]; ManSIFG 7.81 μg/ml plus 100 mg/ml CaCl2 vs CaCl2 alone (FIG. 8)): improves the antifungal activity
antifungal activity against Candida parapsilosis [7]: has antifungal activity
growth of C. albicans wild type as compared to control cultures ([3]; 62.5 μg/ml, 10 hours, significantly (FIG. 2)): inhibited
growth of C. albicans, difference between control and inhibitor cultures ([3]; 62.5 μg/ml, later time points (14, 18, 24 hours)): no significant difference
antifungal activity against Candida tropicalis [8]: has antifungal activity
antifungal activity against Candida krucei [9]: has antifungal activity
